Measurements as given in ChEMBL document CHEMBL1145507, “X-ray structural analysis of Plasmodium falciparum enoyl acyl carrier protein reductase as a pathway toward the optimization of triclosan antimalarial efficacy” (J Biol Chem, 2007).

Tests used:
Plasmodium falciparum [1] = assay: Antimalarial activity against Plasmodium falciparum Dd2 by reduced [3H]hypoxanthine uptake; assay type: functional, organism-based
Plasmodium falciparum [2] = assay: Antimalarial activity against Plasmodium falciparum 3D7 by reduced [3H]hypoxanthine uptake; assay type: functional, organism-based
[3] = biological target: T1, Enoyl-acyl-carrier protein reductase (Plasmodium falciparum, UniProt Q965D5); assay: Inhibition of Plasmodium falciparum ENR
T1 sequence (Q965D5 whole entry): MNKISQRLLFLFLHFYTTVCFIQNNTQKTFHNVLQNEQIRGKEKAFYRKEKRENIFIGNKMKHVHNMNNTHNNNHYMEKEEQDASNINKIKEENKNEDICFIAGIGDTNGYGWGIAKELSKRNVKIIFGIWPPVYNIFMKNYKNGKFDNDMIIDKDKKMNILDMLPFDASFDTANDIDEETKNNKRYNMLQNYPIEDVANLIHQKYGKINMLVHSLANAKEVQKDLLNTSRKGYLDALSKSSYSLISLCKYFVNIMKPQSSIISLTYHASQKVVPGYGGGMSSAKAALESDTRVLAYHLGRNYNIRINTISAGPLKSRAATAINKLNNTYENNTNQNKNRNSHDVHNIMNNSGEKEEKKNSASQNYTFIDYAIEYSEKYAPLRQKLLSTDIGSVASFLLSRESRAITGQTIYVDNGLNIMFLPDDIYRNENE

Plasmodium falciparum [4] = assay: Antimalarial activity against Plasmodium falciparum Dd2; assay type: functional, organism-based
Plasmodium falciparum [5] = assay: Antimalarial activity against Plasmodium falciparum 3D7 expressing katG; assay type: functional, organism-based
Plasmodium falciparum [6] = assay: Antimalarial activity against Plasmodium falciparum 3D7; assay type: functional, organism-based
Plasmodium falciparum [7] = assay: Antimalarial activity against Plasmodium falciparum Dd2 expressing katG; assay type: functional, organism-based

Compound | EC50 (Plasmodium falciparum [1]) | EC50 (Plasmodium falciparum [2]) | IC50 [3] | IC50 (Plasmodium falciparum [4]) | IC50 (Plasmodium falciparum [5]) | IC50 (Plasmodium falciparum [6]) | IC50 (Plasmodium falciparum [7])
O=C(O)c1ccc(Oc2ccc(Cl)cc2Cl)c(O)c1 | > 100 µM | > 100 µM | > 100 µM |  |  |  | 
N#Cc1ccc(Oc2ccc(-c3ccncc3)cc2O)c(Cl)c1 | 11 µM | 11 µM | 2.8 µM |  |  |  | 
Cc1ccc(Oc2ccc(Cl)cc2Cl)c(O)c1 | 14 µM | 10 µM | 0.2 µM |  |  |  | 
N#Cc1ccc(Oc2ccc(-c3ccccn3)cc2O)c(Cl)c1 | 12 µM | 8.1 µM | 0.7 µM |  |  |  | 
Oc1cc(-c2cccnc2)ccc1Oc1ccc(Cl)cc1Cl | 39 µM | 23 µM | 33 µM |  |  |  | 
Oc1cc(-c2nn[nH]n2)ccc1Oc1ccc(Cl)cc1Cl | > 100 µM | > 100 µM | > 100 µM |  |  |  | 
Oc1cc(CCCc2ccccc2)ccc1Oc1ccc(Cl)cc1Cl | 7.2 µM | 6.4 µM | 0.44 µM |  |  |  | 
Oc1cc(CCc2ccccc2)ccc1Oc1ccc(Cl)cc1Cl | 11 µM | 5.6 µM | 0.076 µM |  |  |  | 
N#Cc1ccc(Oc2ccc(Cl)cc2Cl)c(O)c1 | 22 µM | 19 µM | 0.049 µM |  |  |  | 
NC(=O)c1ccc(Oc2ccc(Cl)cc2Cl)c(O)c1 | 45 µM | 40 µM | 21 µM |  |  |  | 
Oc1cc(Cc2ccccn2)ccc1Oc1ccc(Cl)cc1Cl | 13 µM | 7.5 µM | 0.64 µM |  |  |  | 
Oc1cc(Cc2cccnc2)ccc1Oc1ccc(Cl)cc1Cl | 11 µM | 6.9 µM | 0.84 µM |  |  |  | 
Oc1cc(Cc2ccccc2)ccc1Oc1ccc(Cl)cc1Cl | 12 µM | 11 µM | 0.071 µM |  |  |  | 
N#Cc1ccc(Oc2ccc(Cc3ccncc3)cc2O)c(Cl)c1 | 13 µM | 7.4 µM | 0.53 µM |  |  |  | 
NNC(=O)c1ccncc1 [ISONIAZID] |  |  |  | 1800 µM | 1200 µM | 1200 µM | 1800 µM
Oc1cc(Cl)ccc1Oc1ccc(Cl)cc1Cl [TRICLOSAN] | 3.8 µM | 2.8 µM |  |  |  |  | 

Now from value to compound, other results behind:

EC50 (Plasmodium falciparum [1]) | EC50 (Plasmodium falciparum [2]) | IC50 [3] | Compound | IC50 (Plasmodium falciparum [4]) | IC50 (Plasmodium falciparum [5]) | IC50 (Plasmodium falciparum [6]) | IC50 (Plasmodium falciparum [7])
3.9 µM | 2.3 µM | 0.14 µM | Oc1cc(-c2ccccc2)ccc1Oc1ccc(Cl)cc1Cl |  |  |  | 
2.9 µM | 2 µM | 0.29 µM | CCC(C)Cc1ccc(Oc2ccc(Cl)cc2Cl)c(O)c1 (configuration not stated) |  |  |  | 
6 µM | 4.6 µM | 0.11 µM | CCc1ccc(Oc2ccc(Cl)cc2Cl)c(O)c1 |  |  |  | 
6.1 µM | 3.5 µM | 0.23 µM | Cc1cccc(-c2ccc(Oc3ccc(Cl)cc3Cl)c(O)c2)c1 |  |  |  | 
3.1 µM | 2.1 µM | 0.038 µM | Oc1cc(-c2ccc(F)cc2)ccc1Oc1ccc(Cl)cc1Cl |  |  |  | 
8 µM | 7.4 µM | 0.12 µM | CC(C)CCc1ccc(Oc2ccc(Cl)cc2Cl)c(O)c1 |  |  |  | 
2.8 µM | 2 µM | 0.18 µM | CC(C)Cc1ccc(Oc2ccc(Cl)cc2Cl)c(O)c1 |  |  |  | 
2.5 µM | 1.6 µM | 0.44 µM | Cc1ccccc1-c1ccc(Oc2ccc(Cl)cc2Cl)c(O)c1 |  |  |  | 
3.3 µM | 2.6 µM | 0.41 µM | Cc1ccccc1-c1ccc(Oc2ccc(C#N)cc2Cl)c(O)c1 |  |  |  | 
3 µM | 2.5 µM | 0.21 µM | CCCc1ccc(Oc2ccc(Cl)cc2Cl)c(O)c1 |  |  |  | 
3.2 µM | 3.5 µM | 0.48 µM | CCCCc1ccc(Oc2ccc(Cl)cc2Cl)c(O)c1 |  |  |  | 
4.3 µM | 2.9 µM | 0.19 µM | Cc1ccc(-c2ccc(Oc3ccc(Cl)cc3Cl)c(O)c2)cc1 |  |  |  | 
4.8 µM | 3.4 µM | 0.53 µM | Oc1cc(CC2CCCCC2)ccc1Oc1ccc(Cl)cc1Cl |  |  |  | 
